According to patent US5348960A, “Imidazo[4,5-b]quinolinyl oxy alkyl tetrazolyl piperidine derivatives” (Bristol-Myers Squibb Company, priority 1993, dated 1994):
Values after ≈ are worked out from the molar mass of the structure shown. Counter-ions that a name gives are not always drawn.

How the values were obtained:
[1] = tested on: ADP-induced aggregation of human blood platelets; experiment: cells; format: cell-based; settings: Platelet, read-out: IC50 vs ADP in human PRP
Experimental: The aggregometer method of Born, C. V. R., J. Physiol., (London), 162, 67-68, (1962) as modified by Mustard, J. F., et al., J. Lab. Clin. Med., 64, 548-599, (1964) was used to assess the in vitro activity of the various compounds as to the inhibition of adenosine diphosphate (ADP) and collagen-induced platelet aggregation. The human volunteer donor's arm is cleansed with 70% ethyl alcohol. A sterile 20 ml syringe and needle are used to withdraw 20 ml of blood. The blood is immediately added to a test tube containing 3.8% sodium citrate to prevent clotting (1 part citrate to 9 parts blood).
Platelet rich plasma (PRP) was separated by centrifugation for 10 minutes at 1000 rpm (140xg) from citrated (3.8%) human blood. All glassware used for preparation of PRP is silicon treated. ADP in final concentration of 0.5 μg/mL or 0.05 mL of a collagen suspension prepared according to the method described by Evans, G., et al., J. Exp. Med., 128, 877-894, (1968) was used to induce aggregation. The various compounds tested were dissolved in dimethylsulfoxide (DMSO) so that 5 μl added to the platelet rich plasma would yield the desired test concentration. Vehicle control trials were done and compared with aggregation induced in platelet rich plasma containing various concentrations of the test compounds. Dose response curves were obtained and Inhibitor Concentration (IC50) values calculated.
The target compounds were evaluated as inhibitors of ADP-induced aggregation of human blood platelets in platelet-rich-plasma (PRP) in vitro. The test compounds were incubated at about 37° C. in PRP for about 3 minutes prior to the addition of sufficient ADP to provide a final ADP concentration of 5.86 μM.

[2] = aqueous solubility; format: physicochemical; settings: water, dihydrochloride salts

Structure (SMILES)	IC50 [1]	solubility [2]
CCOC(=O)N1CCC(n2nnnc2CCCCOc2ccc3nc4[nH]c(=O)[nH]c4cc3c2)CC1 [Cmpd 10b]	0.05 µg/mL (≈ 0.104 µM)	
CC(C)CN1CCC(n2nnnc2CCCCOc2ccc3nc4[nH]c(=O)[nH]c4cc3c2)CC1 [Cmpd 13f, dihydrochloride]	0.005 µg/mL	> 10000 µg/mL
Oc1nc2cc3cc(OCCCc4nnnn4C4CCN(Cc5ccc(F)cc5)CC4)ccc3[nH]c-2n1 [Cmpd 12c, [5-[3-(2,3-Dihydro-2-oxo-1H-imidazo[4,5-b]quinolin-7-yloxy)propyl]-1H-tetrazol-l-yl]-1-[(4-fluorophyl)methyl]piperidine dihydrochloride]	0.019 µg/mL	> 10000 µg/mL
CCC(CC)CN1CCC(n2nnnc2CCCCOc2ccc3nc4[nH]c(=O)[nH]c4cc3c2)CC1 [Cmpd 13e, [5-[3-(2,3-Dihydro-2-oxo-1H-imidazo[4,5-b]quinolin-7-yloxy)butyl]-1H-tetrazol-1-yl]-1-(2-ethybut-1-yl) piperidine dihyudrochloride]	0.0068 µg/mL (≈ 0.0138 µM)	> 5000 µg/mL
Oc1nc2cc3cc(OCCCc4nnnn4C4CCN(CC5CCCCC5)CC4)ccc3[nH]c-2n1 [Cmpd 12d, (Cyclohexylmethyl)-4-[5-[3-(2,3-dihydro-2-oxo-1H-imidazo[4,5-b]quinolin-7-yloxy)propyl]-1H-tetrazol-1-yl]piperidine dihydrochloride]	0.009 µg/mL	> 10000 µg/mL
Oc1nc2cc3cc(OCCCc4nnnn4C4CCN(CC5CCCCO5)CC4)ccc3[nH]c-2n1 (stereo not drawn) [Cmpd 12k, [5-[3-(2,3-Dihydro-2-oxo-1H-imidazo[4,5-b]quinolin-7-yloxy)propyl]-1H-tetrazol-1-yl]-1-[(terahydro-2H-pyran-2-yl)methyl]piperidine dihydrochloride]	0.04 µg/mL	> 10000 µg/mL
CCOC(=O)N1CCC(n2nnnc2CCCOc2ccc3nc4[nH]c(=O)[nH]c4cc3c2)CC1 [Cmpd 10a, Ethyl 4-[5-[3-(2,3-dihydro-2-oxo-1H-imidazo[4,5-b]quinolin-7-yloxy)propyl]-1H-tetrazol-1-yl]-1-piperidinecarboxylate]	0.2 µg/mL (≈ 0.429 µM)	
CCC(CC)CN1CCC(n2nnnc2CCCOc2ccc3nc4[nH]c(=O)[nH]c4cc3c2)CC1 [Cmpd 12e, [5-[3-(2, 3 -Dihydro-2-oxo-1H-imidazo [4,5-b]quinolin-7-yloxy)propyl]-1l H-tetrazol-1-yl]-1-(2-ethylbut-1-yl) piperidine dihydrochloride]	0.007 µg/mL	> 10000 µg/mL
Oc1nc2cc3cc(OCCCc4nnnn4C4CCN(Cc5ccccc5)CC4)ccc3[nH]c-2n1 [Cmpd 12b, [5-[3-(2,3-Dihydro-2-oxo-1H-imidazo [4,5-b]quinolin-7-yloxy)propyl]-1H-tetrazol-l-yl]-1-(phenylmethyl) piperidine dihydrochloride]	0.022 µg/mL	> 10000 µg/mL
CC(C)CN1CCC(n2nnnc2CCCOc2ccc3nc4[nH]c(=O)[nH]c4cc3c2)CC1 [Cmpd 12f, [5-[3-(2,3-Dihydro-2-oxo-1H-imidazo[4,5-b]quinolin-7-yloxy)propyl]-1H-tetrazol-1-yl]-1-(2-methylprop-1-yl) piperidine dihydrochloride]	0.005 µg/mL	> 10000 µg/mL
Cl.Cl.O=c1[nH]c2cc3cc(OCCCc4nnnn4C4CCN(CC5CCCC5)CC4)ccc3nc2[nH]1 [Cmpd 12h, 1-Cyclopentylmethyl-4-[5-[3-(2,3-dihydro-2-oxo-1H-imidazo[4,5-b]quinolin-7-yloxy)propyl]-1H-tetrazol-1-yl]piperidine dihydrochloride]	0.005 µg/mL	2000 to 3000 µg/mL
Oc1nc2cc3cc(OCCCCc4nnnn4C4CCN(CC5CCCCC5)CC4)ccc3[nH]c-2n1 [Cmpd 13d, dihydrochloride]	0.012 µg/mL	> 5000 µg/mL
Oc1nc2cc3cc(OCCCc4nnnn4C4CCNCC4)ccc3[nH]c-2n1 [Cmpd 12a, [5-[3-(2,3-Dihydro-2-oxo-1H-imidazo[4,5-b]quinolin-7-yloxy)propyl]-1H-tetrazol-1-yl]piperidine dihydrochloride]	5.4 µg/mL	> 20000 µg/mL
Oc1nc2cc3cc(OCCCc4nnnn4C4CCN(CCc5ccccc5)CC4)ccc3[nH]c-2n1 [Cmpd 12g, [5-[3-f 2,3-Dihydro-2-oxo-1H-imidazo[4,5-b]quinolin-7-yloxy)propyl]-1H-tetrazol-1-yl]-1-(2-phenylethyl) piperidine dihydrochloride]	0.048 µg/mL	< 5000 µg/mL
CCCC(CCC)CN1CCC(n2nnnc2CCCOc2ccc3nc4[nH]c(=O)[nH]c4cc3c2)CC1 [Cmpd 12j, [5-[3-(2,3-Dihydro-2-oxo-1H-imidazo [4,5-b]quinolin-7-yloxy)propyl]-1H-tetrazol-1-yl]-1-(2-propylpent-1-yl) piperidine dihydrochloride]	0.048 µg/mL	~2000 µg/mL
Oc1nc2cc3cc(OCCCCc4nnnn4C4CCN(Cc5ccccc5)CC4)ccc3[nH]c-2n1 [Cmpd 13b, dihydrochloride]	0.018 µg/mL	> 5000 µg/mL
Oc1nc2cc3cc(OCCCCc4nnnn4C4CCN(Cc5ccc(F)cc5)CC4)ccc3[nH]c-2n1 [Cmpd 13c, dihydrochloride]	0.031 µg/mL	> 5000 µg/mL
Oc1nc2cc3cc(OCCCCc4nnnn4C4CCNCC4)ccc3[nH]c-2n1 [Cmpd 13a, dihydrochloride]	2.6 µg/mL	~5000 µg/mL
Cl.Cl.O=c1[nH]c2cc3cc(OCCCc4nnnn4C4CCN(CC5CCCCCC5)CC4)ccc3nc2[nH]1 [Cmpd 12i, 1-Cycloheptylmethyl-4-[5-[3-(2,3-dihydro-2-oxo-1H-imidazo[4,5-b]quinolin-7-yl-oxy)propyl]-1H-tetrazol-1-yl]piperidine dihydrochloride]	0.01 µg/mL	~1000 µg/mL
